Read-outs that look alike come from different tables or passages of the source.
Key:
[1] = Noncompartmental pharmacokinetic analysis of plasma concentrations after single oral dose of artefenomel and DSM265 in combination; type: in vivo, human; settings: for Cmax / AUC(0-t) / AUC(0-inf) / Vd/F / Tmax / half-life: human, plasma
Method: Plasma samples were analyzed by liquid chromatography-tandem mass spectrometry (HPLC-MS/MS) as previously described ([2], [4]). The PK parameters determined using noncompartmental analysis were the maximum plasma concentration (Cmax), the time point when Cmax was reached (tmax), the area under the concentration-time curve up to last time point measure (AUC0–last), the area under the concentration-time curve extrapolated to infinity (AUC0–∞), the elimination half-life (t1/2), the apparent clearance (CL/F), and the apparent volume of distribution associated with the terminal elimination phase, where F is bioavailability (Vz/F). The PD variables of interest in this study were the parasite reduction ratio (PRR) and parasite clearance half-life. These provide an estimate of the efficacy of an antimalarial treatment; with the former being the ratio of the parasite density decrease over a 48-h period (expressed as the log10 transformed cohort-specific PRR48 [log10 PRR48]). Noncompartmental PK analysis was performed using PKanalix (version 2019R1, Lixoft SAS, Abtony, France). The area under the concentration-time curve was determined using the linear log trapezoidal method in which linear calculation was used before maximum concentration (Cmax) and logarithmic formula for after Cmax. The slope of the terminal elimination phase (λz) was estimated via a linear regression between log concentrations and time. All parameters were summarized using geometric mean or median and range.

[2] = system: P. falciparum blood-stage malaria parasites; settings: monotherapy, cited from earlier work
[3] = oral, cohort 1 (n = 8), 200 mg artefenomel plus 100 mg DSM265, plasma, read-out: Cmax, range
[4] = oral, cohort 1 (n = 8), 200 mg artefenomel plus 100 mg DSM265, read-out: AUC0–last, geometric mean
[5] = oral, cohort 1 (n = 8), 200 mg artefenomel plus 100 mg DSM265, read-out: AUC0–last, range
[6] = oral, cohort 1 (n = 8), 200 mg artefenomel plus 100 mg DSM265, read-out: AUC0–∞, geometric mean
[7] = oral, cohort 1 (n = 8), 200 mg artefenomel plus 100 mg DSM265, read-out: AUC0–∞, range
[8] = oral, cohort 1 (n = 8), 200 mg artefenomel plus 100 mg DSM265, read-out: Vz/F (apparent volume of distribution, terminal phase), geometric mean
[9] = oral, cohort 1 (n = 8), 200 mg artefenomel plus 100 mg DSM265, read-out: Vz/F, range
[10] = oral, cohort 1 (n = 8), 200 mg artefenomel plus 100 mg DSM265, read-out: tmax, median
[11] = oral, cohort 1 (n = 8), 200 mg artefenomel plus 100 mg DSM265, read-out: tmax, range
[12] = oral, cohort 2 (n = 5), 200 mg artefenomel plus 50 mg DSM265, plasma, read-out: Cmax, range
[13] = oral, cohort 2 (n = 5), 200 mg artefenomel plus 50 mg DSM265, read-out: AUC0–last, geometric mean
[14] = oral, cohort 2 (n = 5), 200 mg artefenomel plus 50 mg DSM265, read-out: AUC0–last, range
[15] = oral, cohort 2 (n = 5), 200 mg artefenomel plus 50 mg DSM265, read-out: AUC0–∞, geometric mean
[16] = oral, cohort 2 (n = 5), 200 mg artefenomel plus 50 mg DSM265, read-out: AUC0–∞, range
[17] = oral, cohort 2 (n = 5), 200 mg artefenomel plus 50 mg DSM265, read-out: Vz/F (apparent volume of distribution, terminal phase), geometric mean
[18] = oral, cohort 2 (n = 5), 200 mg artefenomel plus 50 mg DSM265, read-out: Vz/F, range
[19] = oral, cohort 2 (n = 5), 200 mg artefenomel plus 50 mg DSM265, read-out: tmax, median
[20] = oral, cohort 2 (n = 5), 200 mg artefenomel plus 50 mg DSM265, read-out: tmax, range
[21] = po, cohort 1 (n = 8), single oral dose 200 mg artefenomel plus 100 mg DSM265, plasma, read-out: Cmax, geometric mean
[22] = po, cohort 2 (n = 5), single oral dose 200 mg artefenomel plus 50 mg DSM265, plasma, read-out: Cmax, geometric mean
[23] = cohort 1 (n = 8), 200 mg artefenomel plus 100 mg DSM265
[24] = cohort 2 (n = 5), 200 mg artefenomel plus 50 mg DSM265

Cmax [1, 3] [ng/mL]	AUC(0-t) [1, 4] [µg·h/mL]	AUC(0-t) [1, 5] [µg·h/mL]	AUC(0-inf) [1, 6] [µg·h/mL]	AUC(0-inf) [1, 7] [µg·h/mL]	Vd/F [1, 8] [L]	Vd/F [1, 9] [L]	Tmax [1, 10] [h]	Tmax [1, 11] [h]	Cmax [1, 12] [ng/mL]	AUC(0-t) [1, 13] [µg·h/mL]	AUC(0-t) [1, 14] [µg·h/mL]	AUC(0-inf) [1, 15] [µg·h/mL]	AUC(0-inf) [1, 16] [µg·h/mL]	Vd/F [1, 17] [L]	Vd/F [1, 18] [L]	Tmax [1, 19] [h]	Tmax [1, 20] [h]	Cmax [1, 21] [ng/mL]	Cmax [1, 22] [ng/mL]	SMILES	further results
150 to 597	3.01	1.11 to 4.96	3.08	1.11 to 5.09	8900	4810 to 16000	3	2 to 5	307 to 522	3.25	2.66 to 5.7	3.32	2.68 to 5.91	7990	4590 to 14300	5	1 to 6	372	412	c1cc([C@H]2CC[C@]3(CC2)OO[C@]2(O3)C3CC4CC(C3)CC2C4)ccc1OCCN1CCOCC1 [Artefenomel]	recrudescence ([2]; single dose 200 mg): recrudescence occurred in all subjects; recrudescence, subjects ([2]; single dose 500 mg): 50%
4150 to 6880	434	329 to 502	514	360 to 634	28	22 to 42	2	1 to 3	2150 to 4340	232	209 to 281	271	240 to 309	26	19 to 34	2	1 to 2	5440	3580	Cc1cc(Nc2ccc(S(F)(F)(F)(F)F)cc2)n2nc(C(C)(F)F)nc2n1 [DSM265]	CL/F (apparent clearance), geometric mean [1, 23]: 0.19 L/h; CL/F, range [1, 23]: 0.16 to 0.28 L/h; CL/F (apparent clearance), geometric mean [1, 24]: 0.18 L/h; CL/F, range [1, 24]: 0.16 to 0.21 L/h; half-life ([1]; oral, cohort 1 (n = 8), 200 mg artefenomel plus 100 mg DSM265, read-out: t1/2 (elimination half-life), geometric mean (converted)): 100 h; half-life ([1]; oral, cohort 1 (n = 8), 200 mg artefenomel plus 100 mg DSM265, read-out: t1/2, range): 76 to 185 h; half-life ([1]; oral, cohort 2 (n = 5), 200 mg artefenomel plus 50 mg DSM265, read-out: t1/2 (elimination half-life), geometric mean (converted)): 97 h; half-life ([1]; oral, cohort 2 (n = 5), 200 mg artefenomel plus 50 mg DSM265, read-out: t1/2, range): 75 to 134 h; parasite clearance half-life ([2]; single dose 150 mg): 9.4 h; recrudescence ([2]; single dose 150 mg): recrudescence occurred in all subjects; parasite clearance half-life ([2]; single dose 400 mg): 5.2 h; recrudescence ([2]; single dose 400 mg): no recrudescence occurred

Reference: publication PMC7187626 (Antimicrobial Agents and Chemotherapy, 2019)
